Active and inactive are the calls of the source.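 How the source made its calls: active means cell-killing curve crosses a set limit at a concentration no more than twice the top valid dose; inconclusive means flat curve with a 30 to 70% loss, or a poor fit; inactive means signal rising instead of falling, and the rest.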
Experiment: cytotoxicity in EWS/Fli1-dependent TC71 cells – cell-based, luminescence, cherry-picked samples, retest, confirmation (AID 720570)
Conditions: TC71 Ewing sarcoma viability, CellTiter-Glo ATP, 72 h; at 23.5 µM (top of the series)

With `N#C[C@H]1[C@H](c2ccc(C#Cc3ccccc3F)cc2)[C@@H](CO)N1C(=O)C1CCCCC1` as the compound, how does the activity change, negative = cytotoxicity read?
The activity change, negative = cytotoxicity was -17% (inactive).

For `COC(=O)C[C@@H]1CC[C@@H]2[C@H](COc3ccc(NC(=O)c4cccc(F)c4)cc3C(=O)N2C)O1`, which activity change, negative = cytotoxicity is on record?
Its activity change, negative = cytotoxicity is 2.03% (inactive).

Same assay, conditions: TC71 Ewing sarcoma viability, CellTiter-Glo ATP, 72 h; at 26 µM (top of the series)

For `Cc1noc(C)c1NC(=O)Nc1ccc2c(c1)CC(=O)N([C@H](C)CO)C[C@@H](C)[C@@H](CN(C)Cc1ccc(Cl)c(Cl)c1)O2`, which activity change, negative = cytotoxicity is on record?
Its activity change, negative = cytotoxicity is 0.509% (inactive).

With `COc1ccc(NS(=O)(=O)c2cc(NC(=O)CNC(=O)c3cccc(OC)c3)ccc2C)cc1` as the compound, how does the activity change, negative = cytotoxicity read?
The activity change, negative = cytotoxicity was -0.075% (inactive).

Which activity change, negative = cytotoxicity does the source give for `N#C[C@H]1[C@H](c2ccc(C#Cc3ccccc3F)cc2)[C@@H](CO)N1C(=O)C1CCOCC1` here?
The activity change, negative = cytotoxicity was -12.8% (inactive).

With `O=C(CN1C(=O)c2ccccc2S1(=O)=O)c1ccc(F)cc1` as the compound, how does the activity change, negative = cytotoxicity read?
The activity change, negative = cytotoxicity was 12.8% (inactive).

With `Cc1ccc(Cl)cc1NC(=O)Cn1cc(C(F)(F)F)cc(Cl)c1=O` as the compound, how does the activity change, negative = cytotoxicity read?
The activity change, negative = cytotoxicity was 2.53% (inactive).

With `CCOc1ccc(N=C2C(=O)Nc3ccc(C)c(Br)c32)cc1` as the compound, how does the activity change, negative = cytotoxicity read?
The activity change, negative = cytotoxicity was 8.53% (inactive).

With `C=CC[n+]1c(-c2ccc(C)cc2)csc1Nc1ccc(NC(C)=O)cc1` as the compound, how does the activity change, negative = cytotoxicity read?
Its activity change, negative = cytotoxicity is 0.856% (inactive).

With `C[C@H]1CN([C@@H](C)CO)S(=O)(=O)c2ccc(C#Cc3ccncc3)cc2O[C@@H]1CN(C)S(=O)(=O)c1ccccc1` as the compound, how does the activity change, negative = cytotoxicity read?
The activity change, negative = cytotoxicity was -7.09% (inactive).

Which activity change, negative = cytotoxicity does the source give for `C[C@@H]1CCCCO[C@@H](CN(C)C(=O)Cc2ccccc2)[C@@H](C)CN([C@@H](C)CO)C(=O)c2cc(NS(=O)(=O)c3ccc(F)cc3)ccc2O1` here?
Its activity change, negative = cytotoxicity is -0.12% (inactive).

For `COC(=O)C[C@@H]1CC[C@@H]2[C@@H](COc3ccc(NC(=O)Nc4ccc(C#N)cc4)cc3C(=O)N2C)O1`, which activity change, negative = cytotoxicity is on record?
The activity change, negative = cytotoxicity was 15% (inactive).

With `O=C(Nc1ccc(NC(=O)c2cc3ccccc3o2)cc1)c1ccc2c(c1)OCCO2` as the compound, how does the activity change, negative = cytotoxicity read?
The activity change, negative = cytotoxicity was -3.21% (inactive).

For `O=C(CN1C(=O)C(=O)c2ccccc21)c1ccc(Cl)cc1`, which activity change, negative = cytotoxicity is on record?
Its activity change, negative = cytotoxicity is -1.64% (inactive).

For `Cc1ccc(/C=C2\SC(=S)N(CCC(=O)NNC(=O)c3ccccc3O)C2=O)cc1`, which activity change, negative = cytotoxicity is on record?
Its activity change, negative = cytotoxicity is -7.03% (inactive).

For `CCc1ccc(/C=C2\SC(=S)N(CCCC(=O)N3CCN(C)CC3)C2=O)cc1`, which activity change, negative = cytotoxicity is on record?
The activity change, negative = cytotoxicity was -30.1% (inactive).

Which activity change, negative = cytotoxicity does the source give for `Cc1ccc(NC(=O)CCN2CCCCC2)cc1` here?
Its activity change, negative = cytotoxicity is 3.68% (inactive).

With `C/C(=N\Nc1cccc2cccnc12)c1ccccn1` as the compound, how does the activity change, negative = cytotoxicity read?
The activity change, negative = cytotoxicity was 3.52% (inactive).

Which activity change, negative = cytotoxicity does the source give for `COCCCNc1ccn2nc(-c3ccccc3)cc2n1` here?
The activity change, negative = cytotoxicity was -3.56% (inactive).

For `COc1ccc(NC(=O)c2cc3ccccc3oc2=O)cc1`, which activity change, negative = cytotoxicity is on record?
The activity change, negative = cytotoxicity was 7.98% (inactive).

With `CO[C@H]1CN(C)C(=O)c2ccc(NC(=O)c3ccc(-c4ccccc4)cc3)cc2OC[C@H](C)NC[C@H]1C` as the compound, how does the activity change, negative = cytotoxicity read?
Its activity change, negative = cytotoxicity is 7.36% (inactive).

With `COc1ccc(-c2sc3ccccc3c2-c2ccc(OCCN3CCCCC3)cc2)cc1` as the compound, how does the activity change, negative = cytotoxicity read?
The activity change, negative = cytotoxicity was 12.2% (inactive).

Which activity change, negative = cytotoxicity does the source give for `COc1cc(OC)cc(-c2cc3nc(C)c(CCC(=O)O)c(C)n3n2)c1` here?
Its activity change, negative = cytotoxicity is 13.7% (inactive).

For `O=c1oc2cc(O)ccc2s1`, which activity change, negative = cytotoxicity is on record?
The activity change, negative = cytotoxicity was -26.8% (inactive).

For `C[C@@H]1CCCCO[C@H](CN(C)Cc2ccc(C(F)(F)F)cc2)[C@H](C)CN([C@H](C)CO)C(=O)c2cc(NC(=O)CCCN(C)C)ccc2O1`, which activity change, negative = cytotoxicity is on record?
The activity change, negative = cytotoxicity was -2.5% (inactive).

Which activity change, negative = cytotoxicity does the source give for `COc1cc(/C=N/NC(=O)c2csc3c2CCCC3)cc(OC)c1O` here?
Its activity change, negative = cytotoxicity is -7.47% (inactive).

With `O=C(CCCN1C(=O)/C(=C/c2ccccc2Cl)SC1=S)NNC(=O)c1ccc(Cl)cc1Cl` as the compound, how does the activity change, negative = cytotoxicity read?
The activity change, negative = cytotoxicity was -1.95% (inactive).

For `CCCCNC(=O)C(c1ccc(OCC(=O)OC)c(C(=O)OC)c1)N(CCOC)C(=O)CCCCCN1C(=O)NC(c2ccc(-c3ccccc3)cc2)C(C(=O)OCc2ccccc2)=C1C` (stereo not drawn), which activity change, negative = cytotoxicity is on record?
The activity change, negative = cytotoxicity was 19.3% (inactive).

Which activity change, negative = cytotoxicity does the source give for `Cc1noc(C)c1NC(=O)Nc1ccc2c(c1)CC(=O)N([C@@H](C)CO)C[C@@H](C)[C@@H](CN(C)Cc1ccc(Cl)c(Cl)c1)O2` here?
The activity change, negative = cytotoxicity was -0.95% (inactive).

With `CC(C)CC(NC(=O)c1cccs1)c1nnc(SCc2ccc(Cl)c(Cl)c2)n1C` (stereo not drawn) as the compound, how does the activity change, negative = cytotoxicity read?
The activity change, negative = cytotoxicity was -10% (inactive).

For `COc1ccc(C(=O)Nc2cccc(C(=O)N/N=C/c3ccc(OC)cc3OC)c2)cc1`, which activity change, negative = cytotoxicity is on record?
The activity change, negative = cytotoxicity was 11.2% (inactive).

For `COc1ccc(/C=C2\SC(=S)N(CCCC(=O)Nc3ccc(O)cc3)C2=O)cc1`, which activity change, negative = cytotoxicity is on record?
Its activity change, negative = cytotoxicity is 0.096% (inactive).

Which activity change, negative = cytotoxicity does the source give for `C[C@@H]1CN([C@@H](C)CO)C(=O)c2cccc(NC(=O)Nc3ccccc3)c2O[C@@H]1CN(C)Cc1ccc(-c2ccccc2)cc1` here?
Its activity change, negative = cytotoxicity is 20.4% (inactive).

For `CC(=O)c1ccc(N(C(=O)Cn2nnc3ccccc32)C(C(=O)NCc2ccccc2)c2ccccn2)cc1` (stereo not drawn), which activity change, negative = cytotoxicity is on record?
Its activity change, negative = cytotoxicity is 9.64% (inactive).

For `Cc1nc2cc(-c3ccc(Cl)cc3)nn2c(C)c1CCC(=O)NC(C)c1ccc2c(c1)OCCO2` (stereo not drawn), which activity change, negative = cytotoxicity is on record?
Its activity change, negative = cytotoxicity is 14.2% (inactive).

Which activity change, negative = cytotoxicity does the source give for `CCN1CCN(/C=N/c2nc3c(s2)CCCC3)CC1` here?
The activity change, negative = cytotoxicity was -11.1% (inactive).

With `O=C(O)CN1C(=O)/C(=C\c2ccccc2OCc2ccc(Cl)cc2Cl)SC1=S` as the compound, how does the activity change, negative = cytotoxicity read?
The activity change, negative = cytotoxicity was 10.8% (inactive).

For `COc1cc(/C=N/NS(=O)(=O)c2ccc3ccccc3c2)ccc1OCc1ccc(C(=O)O)cc1`, which activity change, negative = cytotoxicity is on record?
Its activity change, negative = cytotoxicity is 12.1% (inactive).
